# Results as given in paper PMC5522529, “Mechanisms of Paradoxical Activation of AMPK by the Kinase Inhibitors SU6656 and Sorafenib” (Cell Chemical Biology, 2017).
# Tests used:
# AMPK [1] = format: cell-based, mouse; settings: SYF cells, 1 hr
# Method: We next tested the effect of SU6656 in SYF cells, which are mouse embryo fibroblasts (MEFs) with null alleles for Src, Yes, and Fyn, the three Src kinases expressed in MEFs ([Klinghoffer et al., 1999]).
# Top: AMPK activity (mean ± SEM, n = 4); bottom: western blots showing phosphorylation of Thr172 on AMPK, and of ERK1/2, in cells treated with DMSO (control), SU6656 (100 μM), or PP2 (100 nM) (n = 2). (B) As (A), but in SYF cells. (C) HeLa cells were transfected with DNAs encoding GFP alone, or GFP fused to WT, Y261F/Y365F (FF), or Y36F/Y261F/Y365F (FFF) mutants of LKB1; cells were treated with increasing concentrations of SU6656 for 1 hr and AMPK activity determined (mean ± SEM, n = 4). See also Figure S1. (D) HEK293 cells were transfected with DNAs encoding FLAG-tagged AMPK-α2 with or without a Y436F mutation. Cells were incubated with DMSO (control), 100 μM SU6656, 10 mM phenformin, or 10 μM A23187 for 1 hr; AMPK complexes were immunoprecipitated using anti-FLAG antibody and assayed. The top panels show kinase activities (mean ± SD, n = 3); the bottom panels show blots from the same experiment (n = 2). In all panels, asterisks indicate significant differences from DMSO controls; in (D), there were no significant differences between the WT and Y463F mutant. **p < 0.01, ****p < 0.0001. […]
# AMPK [2] = system: AMPK; design: method as in Bain et al., 2007; settings: ref Bain et al., 2007; cited from earlier work
# [3] = system: AMPK-related kinases SIK1, SIK2, SIK3, SNARK, MARK2/3 and MARK4; assay: AMPK-related kinase activity in HeLa cells stably expressing LKB1; format: cell-based, human; settings: HeLa cells expressing LKB1, 100 μM, 1 hr
# Method: Figure 1 SU6656 Activates AMPK but Not AMPK-Related Kinases (A) HEK293 cells were incubated with the indicated concentrations of SU6656 or berberine (300 μM) for 1 hr; total AMPK activity was assayed in immunoprecipitates (top; mean ± SEM, n = 4), and phosphorylation of AMPK (Thr172), ACC (Ser80), and Raptor (Ser792) analyzed by western blotting (bottom; n = 2). (B) HEK293 cells were incubated with 100 μM SU6656 (1 hr), AMPK complexes containing α1, α2, β1, and β2 immunoprecipitated using isoform-specific antibodies, and AMPK activity measured (mean ± SEM, n = 4). (C) HeLa cells stably expressing LKB1 ([Fogarty et al., 2010]) were incubated with 100 μM SU6656 for 1 hr, AMPK or individual ARKs immunoprecipitated, and kinase assays carried out (antibodies that distinguish MARK2/MARK3 were not available, so they were assayed together). Results are means ± SEM (n = 2). In all panels, asterisks indicate significant differences from controls without SU6656. *p < 0.05, **p < 0.01, ****p < 0.0001. […]
# [4] = target: T1, AMPK-γ1 R299G (RG) complexes (Homo sapiens, UniProt P54619, R299G); assay: Activation by LKB1 of FLAG-AMPK-γ1 R299G (RG) complexes precipitated from HeLa cells; format: biochemical; settings: RG mutant γ1; AMP 200 μM or SU6656 3 μM, 10 min
# T1 construct: Plasmid encoding full-length human AMPK-γ1; expressed in transfected cells; host or cells: HeLa
# T1 sequence (P54619 whole entry R299G, one chain of several): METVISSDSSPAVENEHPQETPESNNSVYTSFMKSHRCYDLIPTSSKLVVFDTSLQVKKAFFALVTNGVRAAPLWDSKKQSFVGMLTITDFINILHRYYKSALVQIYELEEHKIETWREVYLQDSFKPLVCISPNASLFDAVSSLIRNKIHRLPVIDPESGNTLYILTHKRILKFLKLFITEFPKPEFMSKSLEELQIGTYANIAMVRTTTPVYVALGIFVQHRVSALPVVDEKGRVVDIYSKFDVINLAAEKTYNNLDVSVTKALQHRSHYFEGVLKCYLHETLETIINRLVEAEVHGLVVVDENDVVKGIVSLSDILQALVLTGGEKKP
# Excerpt: (B) Effect of ATP concentration on kinase activity of α2-KD in the presence of increasing concentrations of SU6656. Results (mean, n = 2) were fitted to the equation Y= (Vmax × X)/(Km × (1 + I/Ki) + X), where Y is the activity, X is the ATP concentration, I is the concentration of SU6656, and Ki is the inhibitory constant for SU6656. […] (D and E) Effect of increasing concentrations of SU6656 on activity (D) and Thr172 phosphorylation (E) induced by LKB1 with unphosphorylated α2-KD (WT/AT mutant). Results in (D) are mean ± SEM (n = 3); and were fitted to same equation as Figure 4C. […] See also Figure S3. (F) Effect of AMP (2 mM) and SU6656 on inactivation of AMPK by PP2Cα in the presence of 5 mM ATP. […] (G) Effects of AMP or SU6656 on activation (top) and Thr172 phosphorylation (bottom) by LKB1 of AMPK-γ1 complexes expressed in HeLa cells. FLAG-tagged AMPK-γ1, either wild-type (WT) or R299G mutant (RG), was expressed in HeLa cells and AMPK complexes precipitated using anti-FLAG antibody. The complexes (which have low basal phosphorylation due to lack of LKB1 in HeLa cells) were incubated with or without a limiting amount of LKB1, AMP (200 μM) or SU6656 (3 μM) for 10 min and AMPK activity determined. […]
# AMPK [5] = assay: AMPK activation in HeLa cells transfected with GFP-LKB1 WT, FF or FFF mutants; format: cell-based, human; settings: HeLa cells expressing GFP-LKB1 WT, not with GFP control
# Method: Top: AMPK activity (mean ± SEM, n = 4); bottom: western blots showing phosphorylation of Thr172 on AMPK, and of ERK1/2, in cells treated with DMSO (control), SU6656 (100 μM), or PP2 (100 nM) (n = 2). (B) As (A), but in SYF cells. (C) HeLa cells were transfected with DNAs encoding GFP alone, or GFP fused to WT, Y261F/Y365F (FF), or Y36F/Y261F/Y365F (FFF) mutants of LKB1; cells were treated with increasing concentrations of SU6656 for 1 hr and AMPK activity determined (mean ± SEM, n = 4). See also Figure S1. (D) HEK293 cells were transfected with DNAs encoding FLAG-tagged AMPK-α2 with or without a Y436F mutation. Cells were incubated with DMSO (control), 100 μM SU6656, 10 mM phenformin, or 10 μM A23187 for 1 hr; AMPK complexes were immunoprecipitated using anti-FLAG antibody and assayed. The top panels show kinase activities (mean ± SD, n = 3); the bottom panels show blots from the same experiment (n = 2). In all panels, asterisks indicate significant differences from DMSO controls; in (D), there were no significant differences between the WT and Y463F mutant. **p < 0.01, ****p < 0.0001.
# We next transiently transfected DNAs encoding GFP, or GFP-tagged wild-type (WT), Y261F/Y365F (FF), or Y36F/Y261F/Y365F (FFF) mutants of LKB1 into HeLa cells, which lack endogenous LKB1.
# α2-KD A156T (AT) mutant = target: T2, α2-KD A156T (AT) mutant (Homo sapiens, UniProt P54646, A156T); assay: Inhibition of phosphorylated α2 kinase domain, A156T (AT) mutant; format: biochemical
# T2 construct: amplifying residues 1-310 with 5' BamH1 and 3' Xho1 sites; made in house; host or cells: bacteria
# T2 sequence (P54646 1-310 A156T): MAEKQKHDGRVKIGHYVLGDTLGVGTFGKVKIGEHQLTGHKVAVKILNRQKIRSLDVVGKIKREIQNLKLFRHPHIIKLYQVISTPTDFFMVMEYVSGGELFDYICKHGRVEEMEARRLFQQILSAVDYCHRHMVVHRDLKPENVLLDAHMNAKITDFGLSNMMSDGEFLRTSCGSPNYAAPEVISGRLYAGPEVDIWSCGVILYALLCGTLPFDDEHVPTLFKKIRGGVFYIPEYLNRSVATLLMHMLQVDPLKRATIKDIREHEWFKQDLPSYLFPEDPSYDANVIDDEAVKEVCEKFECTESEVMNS
compound,measurement,setting,value
CN(C)S(=O)(=O)c1ccc2c(c1)/C(=C/c1cc3c([nH]1)CCCC3)C(=O)N2 [SU6656],AMPK activity / Thr172 phosphorylation,AMPK [1],still activated and increased Thr172 phosphorylation of AMPK
same,inhibition of AMPK relative to Src,AMPK [2],inhibits AMPK as effectively as Src
same,activity of AMPK-related kinases (ARKs),[3],none of the ARKs assayed were activated
same,activation and Thr172 phosphorylation by LKB1,[4],preserved
same,AMPK activation and Thr172 phosphorylation,AMPK [5],"equally in cells expressing the WT, FF, or FFF mutants"
same,IC50,"α2-KD A156T (AT) mutant; AT mutant α2-KD phosphorylated using CaMKK2, read-out: IC50 for inhibition of catalytic activity",1700 ± 300 nM
same,fold less potent inhibition with AT mutant than WT,α2-KD A156T (AT) mutant; AT versus WT α2-KD,~10 fold
